One block for each compound: values may come before it.
Columns and labels:
SNORF25 receptor [1] = molecular target: T1, SNORF25 receptor (Rattus norvegicus, UniProt Q7TQN8); experiment: cAMP release in CHO cells transiently transfected with SNORF25; type: cell-based; conditions: 10 μM; SNORF25-transfected cells (FIG. 6)
T1 construct: the entire coding region was amplified from Rin14b cell line cDNA and rat genomic DNA; expressed in transfected cells; host or cells: CHO cells, transient (electroporation)
T1 sequence (Q7TQN8 with tags, fused parts or gaps limits assumed): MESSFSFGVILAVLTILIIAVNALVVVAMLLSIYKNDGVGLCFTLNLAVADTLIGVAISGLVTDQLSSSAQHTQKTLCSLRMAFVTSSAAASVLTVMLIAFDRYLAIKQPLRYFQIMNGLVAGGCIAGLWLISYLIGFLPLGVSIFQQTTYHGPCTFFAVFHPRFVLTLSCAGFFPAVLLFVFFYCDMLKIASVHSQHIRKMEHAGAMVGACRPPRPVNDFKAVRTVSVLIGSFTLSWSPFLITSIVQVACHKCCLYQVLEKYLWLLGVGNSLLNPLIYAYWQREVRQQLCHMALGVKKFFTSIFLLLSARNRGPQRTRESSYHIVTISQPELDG
Experimental: (§1) CHO cells are grown on 150 mm plates in HAM's F-12 medium with supplements (10% bovine calf serum, 4 mM L-glutamine and 100 units/ml penicillin/100 μg/ml streptomycin) at 37° C., 5% CO2. Stock plates of CHO cells are trypsinized and split 1:8 every 3–4 days.
(§2) A typical protocol for the electroporation method as applied to Cos-7 cells is described as follows. Cells to be used for transfection are split 24 hours prior to the transfection to provide flasks which are subconfluent at the time of transfection. The cells are harvested by trypsinization resuspended in their growth media and counted. 5×10^6 cells are suspended in 300 μl of DMEM and placed into an electroporation cuvette. 8 μg of receptor DNA plus 8 μg of any additional DNA needed (e.g. G protein expression vector, reporter construct, antibiotic resistance marker, mock vector, etc.) is added to the cell suspension, the cuvette is placed into a BioRad Gene Pulser and subjected to an electrical pulse (Gene Pulser settings: 0.25 kV voltage, 950 μF capacitance). […]
(§3) The receptor-mediated stimulation or inhibition of cyclic AMP (cAMP) formation may be assayed in cells expressing the receptors. […] The plates are stored at 4° C. for 15 min, and the cAMP content in the stopping solution is measured by radioimmunoassay. Radioactivity may be quantified using a gamma counter equipped with data reduction software. […]

SNORF25 [2] = molecular target: T2, SNORF25 (Homo sapiens, UniProt Q8TDV5); experiment: Stimulation of cAMP release by CHO cells stably expressing hSNORF25 receptors; type: cell-based; set-up: expressed in transfected cells; conditions: for stimulation of cAMP: 10 μM, data not shown; for % of PAF(C18) Response: maximum response as % of maximum response produced by PAF(C18) (taken as 100%); for EC50: mean ± S.E.M., at least 3 experiments, CHO cells stably expressing hSNORF25
T2 sequence (Q8TDV5 1-335): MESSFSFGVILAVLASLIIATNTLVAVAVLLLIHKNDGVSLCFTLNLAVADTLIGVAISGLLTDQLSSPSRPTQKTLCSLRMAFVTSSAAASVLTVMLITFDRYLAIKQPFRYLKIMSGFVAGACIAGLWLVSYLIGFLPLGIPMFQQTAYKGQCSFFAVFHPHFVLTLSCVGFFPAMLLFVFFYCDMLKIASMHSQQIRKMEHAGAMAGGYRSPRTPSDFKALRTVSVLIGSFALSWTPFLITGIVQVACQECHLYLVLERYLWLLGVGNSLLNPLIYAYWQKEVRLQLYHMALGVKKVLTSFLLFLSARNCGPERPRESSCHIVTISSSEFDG
Experimental: as §1
Heterologous DNA can be stably incorporated into host cells, causing the cell to perpetually express a foreign protein. Methods for the delivery of the DNA into the cell are similar to those described above for transient expression but require the co-transfection of an ancillary gene to confer drug resistance on the targeted host cell. The ensuing drug resistance can be exploited to select and maintain cells that have taken up the DNA. An assortment of resistance genes are available including but not restricted to neomycin, kanamycin, and hygromycin. For the purposes of studies concerning the receptor of this invention, stable expression of a heterologous receptor protein is typically carried out in, mammalian cells including but not necessarily restricted to, CHO, HEK293, LM(tk−), etc.
(§4) The receptor-mediated stimulation or inhibition of cyclic AMP (cAMP) formation may be assayed in cells expressing the receptors. According to one method, cells are plated in 96-well plates or other vessels and preincubated in a buffer such as HEPES buffered saline (NaCl (150 mM), CaCl2 (1mM), KCl (5 mM), glucose (10 mM)) supplemented with a phosphodiesterase inhibitor such as 5 mM theophylline, with or without protease inhibitor cocktail (For example, a typical inhibitor cocktail contains 2 μg/ml aprotinin, 0.5 mg/ml leupeptin, and 10 μg/ml phosphoramidon.) for 20 min at 37° C., in 5% CO2. Test compounds are added with or without […] and incubated for an additional 10 min at 37° C. The medium is then aspirated and the reaction stopped by the addition of 100 mM HCl or other methods. The plates are stored at 4° C. for 15 min, and the cAMP content in the stopping solution is measured by radioimmunoassay. Radioactivity may be quantified using a gamma counter equipped with data reduction software. Specific modifications may be performed to optimize the assay for the receptor or to alter the detection method of cAMP.
as §4, with “According” for “The receptor-mediated stimulation or inhibition of cyclic AMP (cAMP) formation may be assayed in cells expressing the receptors. According”, “a second” for “one”, “washed 2 times with” for “plated in 96-well plates or other vessels and preincubated in a buffer such as”, “saline, as described above, and incubated overnight. On the day of the experiment, cells are washed 2 times with HEPES” for “saline (NaCl (150 mM), CaCl2 (1mM), KCl (5 mM), glucose (10 mM))”
Several other closely related analogues of PAF namely Lyso-PAF with different carbon chains also stimulated cAMP.

SNORF25 [3] = molecular target: T2, SNORF25; experiment: CFTR Cl- currents in Xenopus oocytes co-injected with SNORF25 and CFTR mRNA; type: cell-based; set-up: from linearized plasmids or PCR products containing the complete coding region of the genes; expressed in transfected cells; host or cells: Xenopus laevis oocytes injected with SNORF25 mRNA (with or without CFTR mRNA); conditions: 10 μM; for CFTR current response: oocytes with SNORF25 and CFTR mRNA (FIG. 12A)
Experimental: Oocytes are harvested from Xenopus laevis and injected with mRNA transcripts as previously described (Quick and Lester, 1994; Smith et al., 1997). The test receptor of this invention and Gα subunit RNA transcripts are synthesized using the T7 polymerase (“Message Machine,” Ambion) from linearized plasmids or PCR products containing the complete coding region of the genes. Oocytes are injected with 10 ng synthetic receptor RNA and incubated for 3–8 days at 17 degrees. Three to eight hours prior to recording, oocytes are injected with 500 pg promiscuous Gα subunits mRNA in order to observe coupling to Ca^++ activated Cl^− currents.
Each of the compounds was tested at 10 μM. Oocytes expressing SNORF25 generated inward Cl^− currents, consistent with CFTR activation, in response to all four of the ligands.
The activity of SNORF25 was therefore tested in oocytes co-injected with mRNA encoding SNORF25 and mRNA encoding CFTR. In 17 out of 39 of these oocytes an inward Cl^− current (105±20 nA) was measured in response to the application of 10 μM all-trans-retinoic acid (See FIGS. 9A–9C and 10).

[4] = molecular target: B2 adrenergic receptor (B2AR) (Homo sapiens, UniProt P07550); conditions: 1 μM; holding potential −70 mV (FIG. 9C)
SNORF25 receptor [5] = experiment: cAMP release in Cos-7 cells transiently transfected with SNORF25; type: cell-based; conditions: Cos-7 cells transiently transfected with SNORF25; preliminary, data not shown
Experimental: (§5) COS-7 cells are grown on 150 mm plates in DMEM with supplements (Dulbecco's Modified Eagle Medium with 10% bovine calf serum, 4 mM glutamine, 100 units/ml penicillin/100 μg/ml streptomycin) at 37° C., 5% CO2. Stock plates of COS-7 cells are trypsinized and split 1:6 every 3–4 days.
as §2, §3

[6] = system: mock-transfected Cos-7 cells; experiment: cAMP in mock-transfected Cos-7 cells; type: cell-based; conditions: preliminary
Experimental: as §5, §2, §3

untransfected CHO cells = experiment: cAMP release in native untransfected CHO cells; type: cell-based, Chinese hamster; conditions: FIG. 11A
Experimental: as §1
as §4, with “cAMP. […]” for “cAMP.”

[7] = system: isolated rat pancreatic islets; conditions: cited from earlier work
PAF receptors = PAF receptors (Homo sapiens, UniProt P25105); conditions: cloned or native PAF receptors; cited from earlier work
Sequence of PAF receptors (P25105 whole entry): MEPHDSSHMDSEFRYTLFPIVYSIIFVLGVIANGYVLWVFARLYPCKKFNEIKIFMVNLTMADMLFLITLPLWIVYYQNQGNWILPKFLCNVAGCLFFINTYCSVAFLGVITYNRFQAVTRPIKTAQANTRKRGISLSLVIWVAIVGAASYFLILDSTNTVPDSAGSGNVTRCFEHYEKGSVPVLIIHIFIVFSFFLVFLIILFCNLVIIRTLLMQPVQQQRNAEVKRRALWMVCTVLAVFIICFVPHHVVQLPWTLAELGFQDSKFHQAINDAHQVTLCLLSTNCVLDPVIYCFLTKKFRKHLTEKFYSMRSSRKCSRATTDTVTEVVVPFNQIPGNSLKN

Sequence of B2 adrenergic receptor (B2AR) (P07550 whole entry, species assumed): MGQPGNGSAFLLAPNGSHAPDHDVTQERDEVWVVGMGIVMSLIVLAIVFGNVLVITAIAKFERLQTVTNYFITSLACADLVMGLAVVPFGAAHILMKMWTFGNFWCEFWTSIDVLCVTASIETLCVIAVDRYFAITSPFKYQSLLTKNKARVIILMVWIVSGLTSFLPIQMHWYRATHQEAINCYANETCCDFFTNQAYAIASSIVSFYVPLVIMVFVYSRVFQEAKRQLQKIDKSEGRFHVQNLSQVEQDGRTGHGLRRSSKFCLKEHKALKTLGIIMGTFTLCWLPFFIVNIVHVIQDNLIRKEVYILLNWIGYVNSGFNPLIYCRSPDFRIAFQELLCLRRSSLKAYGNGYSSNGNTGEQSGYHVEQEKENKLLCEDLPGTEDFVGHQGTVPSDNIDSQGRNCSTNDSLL

Compound: C=C1CC[C@H](O)C/C1=C/C=C1\CCC[C@]2(C)[C@@H]([C@H](C)CCCC(C)C)CC[C@@H]12 [vitamin D3]
stimulation of cAMP (SNORF25 [2]): no stimulation of cAMP

Compound: CNC[C@H](O)c1ccc(O)c(O)c1 [epinephrine]
CFTR current [4]: evokes a similar current

Compound: PAF(C16)
% of PAF(C18) Response (SNORF25 [2]): 110%
CFTR current response (SNORF25 [3]): robust responses

Compound: CCCCCCCCCCCCCCCCOC[C@@H](O)COP(=O)([O-])OCC[N+](C)(C)C [Lyso-PAF(C16)]
% of PAF(C18) Response (SNORF25 [2]): 120%
EC50 (SNORF25 [2]): 3.48 ± 1.13 µM
inward Cl- current amplitude (SNORF25 [3]; oocytes with SNORF25 and CFTR mRNA): 61.7±7.8 nA
CFTR current response (SNORF25 [3]): robust responses

Compound: 1-O-alkyl-2-acetyl-sn-glycero-3-phosphocholine [PAF]
stimulation of cAMP levels (SNORF25 receptor [5]): 4–5 fold
stimulation of cAMP levels in mock-transfected cells [6]: not mock-transfected cells
cAMP response in untransfected CHO cells (untransfected CHO cells): No response
potency in inducing insulin secretion relative to lyso-PAF [7]: nearly equipotent to lyso-PAF
potency / activation at typical PAF receptors (PAF receptors): nanomolar potencies
Emax of cAMP response (SNORF25 [2]; CHO cells expressing SNORF25 (FIG. 11A)): 200–400 % basal

Compound: CCCCCCCCCCCCCCCCOC[C@@H](O)COP(=O)([O-])OCC[N+](C)(C)C [lyso-PAF]
EC50 ([7]; basal (1.7 mM) and stimulatory (16.7 mM) glucose, read-out: EC50 of insulin release): ~100 µM
potency / activation at typical PAF receptors (PAF receptors): not activated

Second part, the compound after the results:

increase in cAMP (SNORF25 receptor [1]): failed to produce an increase in cAMP
Compound: CC1=C(/C=C/C(C)=C/C=C/C(C)=C/CO)C(C)(C)CCC1 [All-trans retinol, all-trans-retinol]

stimulation of cAMP (SNORF25 [2]): no stimulation of cAMP
Compound: vitamin E

stimulation of cAMP (SNORF25 [2]): no stimulation of cAMP
Compound: CCCCC/C=C\C/C=C\C/C=C\C/C=C\CCCC(=O)O [AA]

stimulation of cAMP (SNORF25 [2]): no stimulation of cAMP
Compound: CC(C)=CCC/C(C)=C/C=C/C(C)=C/C=C/C(C)=C/C=C/C=C(C)/C=C/C=C(C)/C=C/C=C(\C)CCC=C(C)C [licopene]

% of PAF(C18) Response (SNORF25 [2]): 70%
EC50 (SNORF25 [2]): 5.45 ± 2.63 µM
CFTR current response (SNORF25 [3]): robust responses
Compound: CCCCCCCCCCCCCCCCCCOC[C@@H](O)COP(=O)([O-])OCC[N+](C)(C)C [Lyso-PAF(C18)]

stimulation of cAMP (SNORF25 [2]): no stimulation of cAMP
Compound: CC1=C(/C=C/C(C)=C/C=C/C(C)=C/C=C/C=C(C)/C=C/C=C(C)/C=C/C2=C(C)CCCC2(C)C)C(C)(C)CCC1 [Atb carotene]

From patent publication US7416848B2, “DNA encoding SNORF25 receptor” (H. Lundbeck A/S, priority 1999, dated 2008)
